The record followed here is patent US8802737B2, “Method for improving tetracycline-resistance of Acinetobacter baumannii” (priority 2011, dated 2014).

In brackets after ≈: the same amount, converted by molar mass. Bounds are passed on as bounds.

Common to all, as to format: cell-based, Acinetobacter baumannii
For one test, the system named is A. baumannii strain AB6. Description: MIC by broth micro-dilution, clinical strain AB6. The settings on record: for MIC: Acinetobacter baumannii, read-out: susceptibilities to antibiotics (MICs); for MIC, ginger compound only: strain AB6, 10^5 cfu/mL, no tetracycline. An excerpt:
(§1) Precisely, five strains of clinical A. baumannii, named AB1, AB2, AB4, AB5, AB6, are isolated from patients in Kaohsiung Medical University Hospital, 1600-bed tertiary referral medical center in Taiwan, wherein each of strains is from different clones by genotyping and collected from different samples, for example, sputum, wound pus, blood, pleural fluid, and bronchial washing. All of the five strains of A. baumannii are stored in trypticase soy broth (Difco Laboratories, Detroit, Mich.) with 20% glycerol at −80° C. until the following use.
(§2) Some of the antibiotics including ampicillin, cefazolin and cefmetazole have no MIC breakpoints according to CLSI.
(§3) In the present embodiment, 10^5 cfu/mL of each strain of A. baumannii are prepared, and the medication test of the present invention is carried out by respectively providing the medication of the present invention and the ginger compound only to each strain of A. baumannii. In this way, the antimicrobial activities of the medication of the present invention and of the ginger compound only are monitored and recorded respectively.
On the technique in general: Broth dilution looks for growth in wells or tubes with falling amounts of substance.

Another test concerns A. baumannii strain AB2. Kind of test: MIC by broth micro-dilution, clinical strain AB2. The settings on record: for MIC: Acinetobacter baumannii, read-out: susceptibilities to antibiotics (MICs); for MIC, ginger compound only: strain AB2, 10^5 cfu/mL, no tetracycline.
Excerpt: as §1, §2, §3

A further test relates to A. baumannii strain AB4. Description: MIC by broth micro-dilution, clinical strain AB4. To be noted: for MIC: Acinetobacter baumannii, read-out: susceptibilities to antibiotics (MICs); for MIC, ginger compound only: strain AB4, 10^5 cfu/mL, no tetracycline.
Excerpt: as §1, §2, §3

For another test, the system named is A. baumannii strain AB5. Description: MIC by broth micro-dilution, clinical strain AB5. To be noted: for MIC: Acinetobacter baumannii, read-out: susceptibilities to antibiotics (MICs); for MIC, ginger compound only: strain AB5, 10^5 cfu/mL, no tetracycline.
Excerpt: as §1, §2, §3

The test system of the next test is A. baumannii strain AB1. Description: MIC by broth micro-dilution, clinical strain AB1. To be noted: for MIC: Acinetobacter baumannii, read-out: susceptibilities to antibiotics (MICs); for MIC, ginger compound only: strain AB1, 10^5 cfu/mL, no tetracycline.
Excerpt: as §1, §2, §3

As to `CC1(C)S[C@@H]2[C@H](NC(=O)[C@H](N)c3ccccc3)C(=O)N2[C@H]1C(=O)O` [Ampicillin], the MIC in the test with A. baumannii strain AB6 (strain AB6, LB broth) was not below 512 µg/mL; in the test with A. baumannii strain AB2 (strain AB2, LB broth), not below 512 µg/mL; in the test with A. baumannii strain AB4 (strain AB4, LB broth), not below 512 µg/mL; in the test on A. baumannii strain AB5 (strain AB5, LB broth) it was not below 512 µg/mL; in the test with A. baumannii strain AB1 (strain AB1, LB broth), not below 512 µg/mL.

Regarding `Cc1nnc(SCC2=C(C(=O)O)N3C(=O)[C@@H](NC(=O)Cn4cnnn4)[C@H]3SC2)s1` [Cefazolin], the MIC in the test on A. baumannii strain AB6 (strain AB6, LB broth) is not below 64 µg/mL; in the test with A. baumannii strain AB2 (strain AB2, LB broth), not below 64 µg/mL; with A. baumannii strain AB4 (strain AB4, LB broth), not below 64 µg/mL; with A. baumannii strain AB5 (strain AB5, LB broth), not below 64 µg/mL; in the test with A. baumannii strain AB1 (strain AB1, LB broth), not below 64 µg/mL.

As for `CO/N=C(\C(=O)N[C@@H]1C(=O)N2C(C(=O)[O-])=C(C[N+]3(C)CCCC3)CS[C@H]12)c1csc(N)n1` [Cefepime], the MIC in the test with A. baumannii strain AB6 (strain AB6, LB broth) is not below 64 µg/mL; with A. baumannii strain AB2 (strain AB2, LB broth) it was not below 64 µg/mL; in the test with A. baumannii strain AB4 (strain AB4, LB broth), not below 64 µg/mL; in the test with A. baumannii strain AB5 (strain AB5, LB broth), not below 64 µg/mL; in the test on A. baumannii strain AB1 (strain AB1, LB broth) it was not below 64 µg/mL.

On to `CO[C@@]1(NC(=O)CSCC#N)C(=O)N2C(C(=O)O)=C(CSc3nnnn3C)CS[C@@H]21` [Cefmetazole], for which the MIC with A. baumannii strain AB6 (strain AB6, LB broth) was not below 64 µg/mL; in the test with A. baumannii strain AB2 (strain AB2, LB broth), not below 64 µg/mL; with A. baumannii strain AB4 (strain AB4, LB broth), not below 64 µg/mL; with A. baumannii strain AB5 (strain AB5, LB broth), not below 64 µg/mL; with A. baumannii strain AB1 (strain AB1, LB broth), not below 64 µg/mL.

For the compound `CC(C)(O/N=C(\C(=O)N[C@@H]1C(=O)N2C(C(=O)[O-])=C(C[n+]3ccccc3)CS[C@H]12)c1csc(N)n1)C(=O)O` [Ceftazidime], the MIC is not below 64 µg/mL with A. baumannii strain AB6 (strain AB6, LB broth); not below 64 µg/mL in the test on A. baumannii strain AB2 (strain AB2, LB broth); not below 64 µg/mL with A. baumannii strain AB4 (strain AB4, LB broth); not below 64 µg/mL with A. baumannii strain AB5 (strain AB5, LB broth); not below 64 µg/mL in the test with A. baumannii strain AB1 (strain AB1, LB broth).

With `CO/N=C(\C(=O)N[C@@H]1C(=O)N2C(C(=O)O)=C(CSc3nc(=O)c(=O)[nH]n3C)CS[C@H]12)c1csc(N)n1` [Ceftriaxone], the MIC was not below 64 µg/mL with A. baumannii strain AB6 (strain AB6, LB broth); not below 64 µg/mL with A. baumannii strain AB2 (strain AB2, LB broth); not below 64 µg/mL in the test with A. baumannii strain AB4 (strain AB4, LB broth); not below 64 µg/mL in the test on A. baumannii strain AB5 (strain AB5, LB broth); not below 64 µg/mL with A. baumannii strain AB1 (strain AB1, LB broth).

Turning to `C[C@@H](O)[C@H]1C(=O)N2C(C(=O)O)=C(S[C@@H]3CN[C@H](C(=O)N(C)C)C3)[C@H](C)[C@H]12` [Meropenem], the MIC was not below 16 µg/mL in the test with A. baumannii strain AB6 (strain AB6, LB broth); not below 16 µg/mL in the test on A. baumannii strain AB2 (strain AB2, LB broth); not below 16 µg/mL with A. baumannii strain AB4 (strain AB4, LB broth); not below 16 µg/mL with A. baumannii strain AB5 (strain AB5, LB broth); not below 16 µg/mL with A. baumannii strain AB1 (strain AB1, LB broth).

In the case of `CCN1CCN(C(=O)N[C@@H](C(=O)N[C@@H]2C(=O)N3[C@@H]2SC(C)(C)[C@@H]3C(=O)O)c2ccccc2)C(=O)C1=O` [Piperacillin], the MIC is not below 128 µg/mL in the test on A. baumannii strain AB6 (strain AB6, LB broth); not below 128 µg/mL in the test with A. baumannii strain AB2 (strain AB2, LB broth); not below 128 µg/mL in the test with A. baumannii strain AB4 (strain AB4, LB broth); not below 128 µg/mL with A. baumannii strain AB5 (strain AB5, LB broth); not below 128 µg/mL in the test with A. baumannii strain AB1 (strain AB1, LB broth).

On to `CN(C)[C@@H]1C(O)=C(C(N)=O)C(=O)[C@@]2(O)C(O)=C3C(=O)c4c(O)cccc4[C@@](C)(O)[C@H]3C[C@@H]12` [Tetracycline], for which the MIC in the test on A. baumannii strain AB6 (strain AB6, LB broth) was not below 512 µg/mL; in the test with A. baumannii strain AB2 (strain AB2, LB broth), not below 512 µg/mL; with A. baumannii strain AB4 (strain AB4, LB broth), not below 512 µg/mL; with A. baumannii strain AB5 (strain AB5, LB broth), not below 512 µg/mL; in the test on A. baumannii strain AB1 (strain AB1, LB broth), 32 µg/mL (≈ 72 µM).

Consider `CCCCCC(=O)CC(=O)/C=C/c1ccc(O)c(OC)c1` [[6]-dehydrogingerdione], for which the “MIC, ginger compound only” value against A. baumannii strain AB6 came to 207.1 µM (≈ 60.1 µg/mL); in the test with A. baumannii strain AB2, 166.2 µM (≈ 48.3 µg/mL); with A. baumannii strain AB4, 137.6 µM (≈ 40 µg/mL); in the test on A. baumannii strain AB5 it was 178.5 µM (≈ 51.8 µg/mL); in the test on A. baumannii strain AB1 it was 198.1 µM (≈ 57.5 µg/mL).

Regarding `CCCCC[C@H](O)CC(=O)CCc1ccc(O)c(OC)c1` [[6]-gingerol], the “MIC, ginger compound only” value came out at 275.6 µM (≈ 81.1 µg/mL) in the test on A. baumannii strain AB6; 226.8 µM (≈ 66.8 µg/mL) with A. baumannii strain AB2; 297.1 µM (≈ 87.5 µg/mL) against A. baumannii strain AB4; 277.3 µM (≈ 81.6 µg/mL) against A. baumannii strain AB5; 226.4 µM (≈ 66.7 µg/mL) in the test with A. baumannii strain AB1.

`CCCCC/C=C/C(=O)CCc1ccc(O)c(OC)c1` [[6]-shogaol]: the “MIC, ginger compound only” value with A. baumannii strain AB6 was 347.2 µM (≈ 96 µg/mL); against A. baumannii strain AB2, 274.0 µM (≈ 75.7 µg/mL); in the test with A. baumannii strain AB4, 279.7 µM (≈ 77.3 µg/mL); with A. baumannii strain AB5, 261.3 µM (≈ 72.2 µg/mL); against A. baumannii strain AB1, 208.1 µM (≈ 57.5 µg/mL).

Take `CCCCCCCCC[C@H](O)CC(=O)CCc1ccc(O)c(OC)c1` [[10]-gingerol]: the “MIC, ginger compound only” value in the test on A. baumannii strain AB6 was found to be 198.1 µM (≈ 69.4 µg/mL); with A. baumannii strain AB2 it was 162.3 µM (≈ 56.9 µg/mL); in the test with A. baumannii strain AB4 it was 196.0 µM (≈ 68.7 µg/mL); against A. baumannii strain AB5 it was 207.5 µM (≈ 72.7 µg/mL); with A. baumannii strain AB1, 144.6 µM (≈ 50.7 µg/mL).

For the compound Gentamicin, the “susceptibilities to antibiotics (MICs)” value with A. baumannii strain AB6 (strain AB6, LB broth) is “≧16 μg/ml”; in the test with A. baumannii strain AB2 (strain AB2, LB broth) it was “≧16 μg/ml”; in the test on A. baumannii strain AB4 (strain AB4, LB broth) it was “≧16 μg/ml”; in the test with A. baumannii strain AB5 (strain AB5, LB broth), “≧16 μg/ml”; with A. baumannii strain AB1 (strain AB1, LB broth) it was “≧16 μg/ml”.
